Patent publication US11285144B2, “Use of CDK8 inhibitors to treat diseases of inflammation and autoimmunity” (THE BROAD INSTITUTE, INC., priority 2016, dated 2022)
“Also recorded” adds a separate entry of the source.

Assays:
R848-stimulated BMDCs [1] = assay: IL-10 mRNA levels in BMDCs following R848 stimulation; type: cell-based, mouse; conditions: pre-treatment, then R848 stimulation
Procedure: FIG. 5—Cellular activities of the IL-10 hit BRD6989. […] (d) Effect of BRD6989 on IL-10 production in human DCs stimulated with R848 (each point corresponds to mean±S.D.; n=3 biological replicates from 1 independent experiment using cells derived from 1 donor). (e) Chemical structure of the pan-SIK inhibitor HG-9-91-01. (f) Effect of pre-treating BMDCs with HG-9-91-01 (0.5 μM) or BRD6989 (5 μM) on IL-10 mRNA levels following stimulation with R848 (each point corresponds to mean±S.D.; n=4 biological replicates from 1 independent experiment; *, P<0.05; ***, P<0.001 using unpaired, two-tailed Student's t test). Data from all panels is representative of at least 2 independent experiments.
Based on its ability to selectively potentiate IL-10 production by a mechanism that appears temporally distinct from CREB activation, BRD6989 was prioritized for MOA studies.

[2] = system: human, monocyte-derived DCs; assay: IL-10 production in human monocyte-derived DCs stimulated with R848; type: cell-based
Source text: (§1) The pyridinyl tetrahydroquinoline BRD6989 (10) emerged as a prioritized hit in the screen (FIG. 2a and Table 2). […] Thus, BRD6989 enhances IL-10 production in activated human and murine macrophages and dendritic cells by a mechanism that appears most pronounced following stimulation of toll-like receptors-7 (TLR7) and TLR8 by R848.
(§2) Pre-treatment with these CDK8/19 inhibitors recapitulated the IL-10 potentiating activity of BRD6989 in both BMDCs (FIG. 9b) along with human DCs derived from two independent donors in the context of R848 stimulation (FIGS. 9c and 10a).

R848-stimulated BMDCs [3] = assay: Cytokine production by R848-stimulated BMDCs; type: cell-based, mouse
Source text: as §1, §2

[4] = system: BMDCs stimulated with R848 or Zymosan A; assay: Co-treatment of BMDCs with T-5224, cytokine production; type: cell-based, mouse; conditions: T-5224 100 μM
Procedure: FIG. 13—Modulation of c-Jun/AP-1 links CDK8 inhibition to enhanced IL-10 production. (a) CDK8 responsive signaling pathways in activated BMDMs as identified by the highly parallel reporter gene assay TF-Seq. Reporter data is integrated for time points between 15 min 4 hr from 1 independent experiment. Dashed lines correspond to FDR<0.05 as corrected by Benjamin-Hochberg testing. (b) Relative to all highly expressed genes, JunB binding sites are enriched among the subset of genes induced by CDK8 inhibition (see Online Methods). […] Data is representative of 2 independent experiments. […] Data is representative of 2 independent experiments. […] CpG, synthetic CpG-containing oligonucleotide; FLA, flagellin A; LPS, lipopolysaccharide; MDP, muramyldipeptide; Pam3cys, synthetic triacylated lipoprotein; poly(I:C), polyinosinic-polycytidylic acid; SeV, Sendai virus; TDB, trehalose-6,6-dibehenate.
FIG. 15—CDK8 inhibition enhances AP-1 activity during innate immune activation. (a) Time course of AP-1 reporter activity in BMDMs pre-treated with dCA (0.1 μM) or BRD6989 (5 μM) prior to stimulation with the indicated viruses or microbial ligands for the indicated time points (each point corresponds to TF-Seq reporter data derived from 1 independent experiment). […] Data is from 1 independent experiment. (c) Chemical structure of the c-Fos/AP-1 inhibitor T-5224. […] Data in panels (c,d) are representative of 2 independent experiments. CpG, synthetic CpG-containing oligonucleotide; FLA, flagellin; LPS, lipopolysaccharide; MDP, muramyldipeptide; Pam3cys, synthetic triacylated lipoprotein; Poly(I:C), polyinosinic-polycytidylic acid; SeV, Sendai virus; TDB, trehalose-6,6-dibehenate.
Given the presence of an AP1 consensus motif in IL-10 and evidence that potentiation of MAP kinase signaling can increase IL-10 production (Saraiva et al., Nat Rev Immunol 10:170-81, 2010; Wang et al., Nat Commun 5:3479, 2014; Na et al., Science Signaling 8:2015), it was hypothesized that increased AP-1 activity resulting from reduced c-Jun Ser243 phosphorylation may mediate activation of IL-10 following CDK8 inhibition.

[5] = system: Zymosan A-stimulated BMDCs; assay: Cytokine production by Zymosan A-stimulated BMDCs; type: cell-based, mouse; conditions: zymosan A-stimulated BMDCs
Source text: Towards the goal of identifying new mechanisms of IL-10 regulation, 59,346 small molecules were screened for the ability to enhance IL-10 production by activated bone marrow-derived dendritic cells (BMDCs) using a high-throughput assay developed previously (Sundberg et al., PNAS 111:12468-12473, 2014). Compounds were derived from both commercial collections and structurally and skeletally diverse libraries prepared by diversity-oriented synthesis (DOS). More than 60 hit compounds were identified that reproducibly enhance IL-10 production in a concentration-dependent manner (Table 1). Three distinct chemotypes were prioritized for follow-up based on potency and an initial analysis of structure-activity relationship (SAR) with respect to core scaffold, stereochemistry and side chains (FIG. 2a).
as §1

tubulin = assay: Tubulin polymerization, cell-free assay; type: biochemical
Source text: FIG. 4—DOS-derived IL-10 hit BRD0326 perturbs microtubule dynamics. (a) Chemical structure of BRD0326. […] (c) BRD0326's IL-10 enhancing activity depends on its stereochemistry (EC50's=mean of 2 independent experiments). (d) Transcriptional responses elicited by BRD0326 correlate with those induced by small molecule modulators of microtubule dynamics.

COc1ccc(N(C(=O)Nc2c(C)cccc2C)c2cc(Nc3ccc(N4CCN(C)CC4)cc3)ncn2)c(OC)c1 [HG-9-91-01, reference compound]
IL-10 mRNA levels (R848-stimulated BMDCs [1]): elevate Il-10 mRNA immediately following microbial stimulation without greatly extending the duration of this response

Cn1ncc2cc(-c3cnc(N)c(Cl)c3N3CCC4(CCNC4=O)CC3)ccc21 [CCT251921]
IL-10 production [2]: recapitulate IL-10 potentiation by BRD6989 | IL-10 production (R848-stimulated BMDCs [3]): recapitulate the IL-10 enhancing activity of BRD6989

O=C(O)CCc1cc(C(=O)c2ccc(OC3CCCC3)cc2O)ccc1OCc1ccc2c(=O)[nH]oc2c1 [T-5224]
production of IL-6 or TNFα on co-incubation with dCA ([4]; R848): does not affect production of IL-6 or TNFα | IL-10 production on co-treatment with dCA ([4]; R848 or Zymosan A): suppressed IL-10 production; also recorded: suppresses the IL-10 enhancing activity of dCA | IL-10 increase induced by HG-9-91-01 on co-treatment ([4]; Zymosan A): did not affect; also recorded: does not affect up-regulation of IL-10 or suppression of IL-6

CS(=O)(=O)N1[C@H](C#N)[C@H](c2ccc(C#Cc3cccc(F)c3)cc2)[C@H]1CO [BRD0326]
IL-10 production [5]: potentiates IL-10 production by Zymosan A-stimulated BMDCs to a similar degree as PGE2 | tubulin / microtubule polymerization (tubulin): suppressed microtubule polymerization; also recorded: suppresses tubulin polymerization

CN(C)C/C=C/C(=O)Nc1ccc(C(=O)Nc2cccc(Nc3ncc(Cl)c(-c4c[nH]c5ccccc45)n3)c2)cc1 [THZ-1]
IL-10 production (R848-stimulated BMDCs [3]): not enhanced
